According to patent publication US9617258B2, “Pyrrolo[2,3-d]pyrimidinyl, pyrrolo[2,3-b]pyrazinyl and pyrrolo[2,3-d]pyridinyl acrylamides” (Pfizer Inc., priority 2013, dated 2017):

Assay: Stability of JAK3 covalent inhibitors in human whole blood;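 note: parent compound remaining over incubation time quantified by LC-MS/MS as peak area ratio against an internal standard, using pooled K2-EDTA blood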
Assay type: in vitro ADME
Conditions: both sexes, whole blood, 37° C., read-out: Human blood stability t1/2
Description: Stability of JAK3 Covalent Inhibitors in Rat and Human Whole Blood
Rat blood was collected from 3 male Sprague-Dawley rats (200-250 g, Charles River Laboratories) and pooled for each study. Human blood was collected from one male and one female healthy subjects at the Occupational Health & Wellness Center at Pfizer, Groton, CT and pooled for each study. Both rat and human blood was collected freshly into K2-EDTA tubes and kept on ice. An aliquot of the blood was transferred to microtubes and pre-warmed for 10 min at 37° C. using a heat block. […] An aliquot of the incubation mixture was removed at designated time points during the course of the incubation, mixed with an aliquot of acetonitrile containing an internal standard, vortexed and centrifuged. The resulting supernatants were removed and subjected to LC-MS/MS analyses to determine parent compound concentrations. Peak area ratios of the parent compound vs the internal standard were used to determine the % of parent compound remaining vs incubation time.

Compound | half-life at 1 μM
C=CC(=O)N1CCC(Nc2cnc3[nH]cc(C(=O)NCC(F)(F)F)c3n2)CC1 [Example 273, 2-[(1-acryloylpiperidin-4-yl)amino]-N-(2,2,2-trifluoroethyl)-5H-pyrrolo[2,3-b]pyrazine-7-carboxamide] | 3.63 h
C=CC(=O)N1C[C@H](F)C[C@@H](Nc2ncnc3[nH]ccc23)C1 [Example 10, 1-((3R,5R)-3-((7H-pyrrolo[2,3-d]pyrimidin-4-yl)amino)-5-fluoropiperidin-1-yl)prop-2-en-1-one] | 2.72 h
C=CC(=O)N1CC(Nc2cnc3[nH]ccc3n2)C1 [Example 337, 1-(3-((5H-Pyrrolo[2,3-b]pyrazin-2-yl)amino)azetidin-1-yl)prop-2-en-1-one] | 1.35 h
C=CC(=O)N1CCC(C)(Nc2cnc3[nH]cc(C(=O)NC(C)C)c3n2)CC1 [Example 318, 2-[(1-acryloyl-4-methylpiperidin-4-yl)amino]-N-(propan-2-yl)-5H-pyrrolo[2,3-b]pyrazine-7-carboxamide] | 5.87 h
C=CC(=O)N1CCC[C@@H](Nc2ncnc3[nH]ccc23)C1 [Example 12, (R)-1-(3-((7H-Pyrrolo[2,3-d]pyrimidin-4-yl)amino)piperidin-1-yl)prop-2-en-1-one] | > 5.53 h
C=CC(=O)N1CCC[C@@H](Nc2ncnc3[nH]cc(-c4ccc(N5CCOCC5)nc4)c23)C1 [Example 36, 1-[(3R)-3-({5-[6-(morpholin-4-yl)pyridin-3-yl]-7H-pyrrolo[2,3-d]pyrimidin-4-yl}amino)piperidin-1-yl]prop-2-en-1-one] | > 6 h
C=CC(=O)N1C[C@@H](O)C[C@@H](Nc2ncnc3[nH]ccc23)C1 [Example 17, 1-((3R,5S)-3-(7H-Pyrrolo[2,3-d]pyrimidin-4-ylamino)-5-hydroxypiperidin-1-yl)prop-2-en-1-one] | > 5.17 h
C=CC(=O)N1CCC(Nc2cnc3[nH]cc(C(=O)NC(C)C4CC4)c3n2)CC1 (stereo not shown) [Example 288, 2-[(1-acryloylpiperidin-4-yl)amino]-N-(1-cyclopropylethyl)-5H-pyrrolo[2,3-b]pyrazine-7-carboxamide] | 3.67 h
C=CC(=O)N[C@H]1C[C@@H](Nc2cnc3[nH]cc(C(=O)NC(C)C)c3n2)C1 [Example 184, 2-{[cis-3-(acryloylamino)cyclobutyl]amino}-N-(propan-2-yl)-5H-pyrrolo[2,3-b]pyrazine-7-carboxamide] | > 6 h
C=CC(=O)N1C[C@H](Nc2ncnc3[nH]cc(C#N)c23)CC[C@@H]1C [Example 163, 4-{[(3R,6S)-1-Acryloyl-6-methylpiperidin-3-yl]amino}-7H-pyrrolo[2,3-d]pyrimidine-5-carbonitrile] | 4.83 h
C=CC(=O)N1CCC(Nc2cnc3[nH]cc(-c4ccnc(C)c4)c3n2)CC1 [Example 201, 1-(4-{[7-(2-methylpyridin-4-yl)-5H-pyrrolo[2,3-b]pyrazin-2-yl]amino}piperidin-1-yl)prop-2-en-1-one] | > 6 h
C=CC(=O)N1C[C@H](C)C[C@@H](Nc2ncnc3[nH]ccc23)C1 [Example 74, 1-[(3R,5R)-3-Methyl-5-(7H-pyrrolo[2,3-d]pyrimidin-4-ylamino)piperidin-1-yl]prop-2-en-1-one] | 1.72 h
C=CC(=O)N1CCC(Nc2cnc3[nH]cc(C(=O)N[C@H](C)CC)c3n2)CC1 [Example 289, 2-[(1-acryloylpiperidin-4-yl)amino]-N-[(2R)-butan-2-yl]-5H-pyrrolo[2,3-b]pyrazine-7-carboxamide] | > 6 h
C=CC(=O)N1CCC(Nc2cnc3[nH]cc(C(=O)NC4CCCC4(F)F)c3n2)CC1 (stereo not shown) [Example 234, 2-[(1-acryloylpiperidin-4-yl)amino]-N-(2,2-difluorocyclopentyl)-5H-pyrrolo[2,3-b]pyrazine-7-carboxamide] | 4.93 h
C=CC(=O)N(C)C1CN(c2cnc3[nH]cc(C(=O)NC(C)C)c3n2)C1 [Example 187, 2-{3-[acryloyl(methyl)amino]azetidin-1-yl}-N-(propan-2-yl)-5H-pyrrolo[2,3-b]pyrazine-7-carboxamide] | > 6 h
C=CC(=O)N1CC2CCN(c3cnc4[nH]cc(C(=O)NC(C)C)c4n3)C2C1 (stereo not shown) [Example 178, 2-(5-acryloylhexahydropyrrolo[3,4-b]pyrrol-1(2H)-yl)-N-(propan-2-yl)-5H-pyrrolo[2,3-b]pyrazine-7-carboxamide] | 2.38 h
C=CC(=O)N1CCC(Nc2cnc3[nH]cc(C(=O)NCCCC)c3n2)CC1 [Example 269, 2-[(1-acryloylpiperidin-4-yl)amino]-N-butyl-5H-pyrrolo[2,3-b]pyrazine-7-carboxamide] | 4.27 h
C=CC(=O)N1CC(Nc2cnc3[nH]cc(C(=O)NC(C)C)c3n2)C1 [Example 188, 2-[(1-acryloylazetidin-3-yl)amino]-N-(propan-2-yl)-5H-pyrrolo[2,3-b]pyrazine-7-carboxamide] | 1.6 h
C=CC(=O)N1CCC(Nc2cnc3[nH]cc(C(=O)NCC(C)(C)C)c3n2)CC1 [Example 271, 2-[(1-acryloylpiperidin-4-yl)amino]-N-(2,2-dimethylpropyl)-5H-pyrrolo[2,3-b]pyrazine-7-carboxamide] | 2.28 h

Compound | half-life at 1 μM
C=CC(=O)N1CCC(Nc2cnc3[nH]cc(C(=O)NC4CC(F)C4)c3n2)CC1 (stereo not shown) [Example 243, 2-[(1-acryloylpiperidin-4-yl)amino]-N-(3-fluorocyclobutyl)-5H-pyrrolo[2,3-b]pyrazine-7-carboxamide] | > 6 h
C=CC(=O)N1CCC[C@@H](Nc2nc(Nc3cccnc3)nc3[nH]ccc23)C1 [Example 63, 1-[(3R)-3-{[2-(Pyridin-3-ylamino)-7H-pyrrolo[2,3-d]pyrimidin-4-yl]amino}piperidin-1-yl]prop-2-en-1-one] | > 6 h
C=CC(=O)N1CCC(Nc2cnc3[nH]cc(C(=O)N[C@@H]4CCC[C@H]4F)c3n2)CC1 [Example 237, 2-[(1-acryloylpiperidin-4-yl)amino]-N-[(1R,2R)-2-fluorocyclopentyl]-5H-pyrrolo[2,3-b]pyrazine-7-carboxamide] | 4.05 h
C=CC(=O)N1CCC[C@@H](Nc2ncnc3[nH]cc(-c4ccc(C(=O)N(C)C)cc4)c23)C1 [Example 27, 4-(4-{[(3R)-1-acryloylpiperidin-3-yl]amino}-7H-pyrrolo[2,3-d]pyrimidin-5-yl)-N,N-dimethylbenzamide] | 0.767 h
C=CC(=O)N1CCC(Oc2cnc3[nH]cc(C(=O)NC(C)(C)C)c3n2)CC1 [Example 338, 2-((1-Acryloylpiperidin-4-yl)oxy)-N-(tert-butyl)-5H-pyrrolo[2,3-b]pyrazine-7-carboxamide] | 5.47 h
C=CC(=O)N1CCC(Nc2cnc3[nH]cc(C(=O)NC4CCCCC4)c3n2)CC1 [Example 278, 2-[(1-acryloylpiperidin-4-yl)amino]-N-cyclohexyl-5H-pyrrolo[2,3-b]pyrazine-7-carboxamide] | 3.93 h
C=CC(=O)N1CC(Nc2ncnc3[nH]ccc23)CCC1CO (stereo not shown) [Example 52, 1-[2-(Hydroxymethyl)-5-(7H-pyrrolo[2,3-d]pyrimidin-4-ylamino)piperidin-1-yl]prop-2-en-1-one] | > 5.97 h
C=CC(=O)N1CCC[C@@H](Nc2ncnc3[nH]cc(-c4cncc(OC)c4)c23)C1 [Example 24, 1-[(3R)-3-{[5-(5-methoxypyridin-3-yl)-7H-pyrrolo[2,3-d]pyrimidin-4-yl]amino}piperidin-1-yl]prop-2-en-1-one] | > 6 h
C=CC(=O)N1C[C@@H](C)C[C@@H](Nc2ncnc3[nH]ccc23)C1 (single isomer, unassigned) [Example 14] | > 4.18 h
C=CC(=O)N1[C@@H]2CC[C@H]1CN(c1cnc3[nH]cc(C(=O)NC(C)C)c3n1)C2 [Example 301, 2-[(1R,5S)-8-acryloyl-3,8-diazabicyclo[3.2.1]oct-3-yl]-N-(propan-2-yl)-5H-pyrrolo[2,3-b]pyrazine-7-carboxamide] | 1.4 h
C=CC(=O)N1CCC(Nc2cnc3[nH]cc(C(=O)NCCOC)c3n2)CC1 [Example 275, 2-[(1-acryloylpiperidin-4-yl)amino]-N-(2-methoxyethyl)-5H-pyrrolo[2,3-b]pyrazine-7-carboxamide] | > 6 h
C=CC(=O)N1C[C@H](Nc2ncnc3[nH]ccc23)C[C@@H](N(C)C)C1 [Example 88, 1-[(3R,5R)-3-(Dimethylamino)-5-(7H-pyrrolo[2,3-d]pyrimidin-4-ylamino)piperidin-1-yl]prop-2-en-1-one] | 1.23 h
C=CC(=O)N1C[C@H](Nc2ncnc3[nH]ccc23)CC[C@@H]1CO (single isomer, unassigned) [Example 7] | > 5.56 h
C=CC(=O)N1CC[C@@H](Nc2cnc3[nH]cc(C(=O)NC(C)(C)C)c3n2)C[C@H]1C [Example 342, 2-(((2R,4R)-1-Acryloyl-2-methylpiperidin-4-yl)amino)-N-(tert-butyl)-5H-pyrrolo[2,3-b]pyrazine-7-carboxamide] | > 6 h
C=CC(=O)N1CCN(c2cnc3[nH]cc(C(=O)NC(C)C)c3n2)CC1 [Example 174, 2-(4-acryloylpiperazin-1-yl)-N-(propan-2-yl)-5H-pyrrolo[2,3-b]pyrazine-7-carboxamide] | 4.16 h
C=CC(=O)N1CC[C@@H](Nc2cnc3[nH]cc(C(=O)NC(C)C)c3n2)[C@H](F)C1 [Example 291, 2-{[(3R,4R)-1-acryloyl-3-fluoropiperidin-4-yl]amino}-N-(propan-2-yl)-5H-pyrrolo[2,3-b]pyrazine-7-carboxamide] | 3.27 h
C=CC(=O)N1C[C@@H](Nc2ncnc3[nH]ccc23)CC[C@H]1CO [Example 117, 1-[(2S,5S)-2-(Hydroxymethyl)-5-(7H-pyrrolo[2,3-d]pyrimidin-4-ylamino)piperidin-1-yl]prop-2-en-1-one] | > 6 h
C=C(C(=O)N1CC[C@@H]2CCN(c3ncnc4[nH]ccc34)[C@@H]2C1)C(F)(F)F [Example 41, 1-((3aS,7aS)-1-(7H-Pyrrolo[2,3-d]pyrimidin-4-yl)hexahydro-1H-pyrrolo[2,3-c]pyridin-6(2H)-yl)-2-(trifluoromethyl)prop-2-en-1-one] | 0.0467 h
